Measured values reported in US12441719B2, “Inhibitors of SARM1” (Disarm Therapeutics, Inc., priority 2019, dated 2025).

These molecules were tested against T1, SARM1 (Homo sapiens, UniProt Q6SZW1) (assay: ARM-SAM-TIR SARM1 IC50 assay (NADase activity, NAD+ cleavage)). Details: not given.
T1 construct: AviTag […]; made in house; host or cells: NRK1-HEK293T cells, transiently transfected; the clarified sonicated lysate was used without purification
T1 sequence (Q6SZW1 with tags, fused parts or gaps): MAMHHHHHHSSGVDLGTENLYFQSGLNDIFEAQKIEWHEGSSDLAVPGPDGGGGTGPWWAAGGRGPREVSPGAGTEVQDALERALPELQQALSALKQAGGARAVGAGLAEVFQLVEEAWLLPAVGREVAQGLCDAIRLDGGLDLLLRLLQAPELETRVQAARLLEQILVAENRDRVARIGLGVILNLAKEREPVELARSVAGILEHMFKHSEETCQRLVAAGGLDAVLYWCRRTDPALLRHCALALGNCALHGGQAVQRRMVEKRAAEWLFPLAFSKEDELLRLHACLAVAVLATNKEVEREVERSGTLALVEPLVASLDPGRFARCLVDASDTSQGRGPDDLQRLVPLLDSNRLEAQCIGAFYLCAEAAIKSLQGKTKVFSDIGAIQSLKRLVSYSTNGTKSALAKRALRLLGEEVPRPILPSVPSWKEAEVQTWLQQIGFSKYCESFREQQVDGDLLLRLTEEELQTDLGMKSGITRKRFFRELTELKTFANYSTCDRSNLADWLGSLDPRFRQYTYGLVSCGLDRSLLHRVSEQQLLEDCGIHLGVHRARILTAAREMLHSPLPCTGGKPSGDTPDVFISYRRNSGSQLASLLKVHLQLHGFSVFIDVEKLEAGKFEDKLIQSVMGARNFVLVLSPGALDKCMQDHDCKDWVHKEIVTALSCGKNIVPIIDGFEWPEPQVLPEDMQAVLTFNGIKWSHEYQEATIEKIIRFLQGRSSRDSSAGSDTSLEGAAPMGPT
Assay type: biochemical
Text: This Example describes an assay of ARM-SAM-TTR NADase activity and use of this assay to measure the efficacy of compounds of Formula I or Formula II to block SARM1 mediated NAD+ cleavage. This assay is optimized in such a way as to characterize the efficacy of the compounds in Formula I or Formula II to inhibit SARM1 activity and to calculate an IC50 value for each compound. This assay makes use of full length SARI, which encompasses the ARM, SAM and TTR domains.
Preparation of ARM-SAM-TIR Lysate (STL)
NRK1-HEK293T cells were seeded onto 150 cm^2 plates at 20×10^6 cells per plate. The next day, the cells were transfected with 15 μg ARM-SAM-TIR expression plasmid, SEQ ID NO: 1.
The cultures were supplemented with 1 mM NR at time of transfection to minimize toxicity from ARM-SAM-TIR overexpression. Forty-eight hours after transfection, cells were harvested, pelleted by centrifugation at 1,000 rpm (Sorvall ST 16R centrifuge, Thermo Fisher), and washed once with cold PBS (0.01 M phosphate buffered saline NaCl 0.138 M; KCl 0.0027 M; pH 7.4). The cells were resuspended in PBS with protease inhibitors (cOmplete™ protease inhibitor cocktail, Roche product #11873580001) and cell lysates were prepared by sonication (Branson Sonifer 450, output=3, 20 episodes of stroke). The lysates were centrifuged (12,000×g for 10 min at 4° C.) to remove cell debris and the supernatants (containing ARM-SAM-TIR protein) were stored at −80° C. for later use in the in vitro ARM-SAM-TIR NADase assay (see below). Protein concentration was determined by the Bicinchoninic (BCA) method and used to normalize lysate concentrations.
ARM-SAM-TIR IC50 Assay of Formula I or Formula II Compounds.
The enzymatic assay was performed in a 384-well polypropylene plate in Dulbecco's PBS buffer in a final assay volume of 20 μL. ARM-SAM-TIR lysate with a final concentration of 5 μg/mL was pre-incubated with the respective compound at 1% DMSO final assay concentration over 2 h at room temperature. The reaction was initiated by addition of 5 μM final assay concentration of NAD+ as substrate. After a 2 hr room temperature incubation, the reaction was terminated with 40 μL of stop solution of 7.5% trichloroactetic acid in acetonitrile. The NAD+ and ADPR concentrations were analyzed by a RapidFire High Throughput Mass Spectrometry System (Agilent Technologies, Santa Clara, CA) using an API4000 triple quadrupole mass spectrometer (AB Sciex Framingham, MA).

SMILES | IC50 [µM]
N#Cc1cc(N2CCNCC2)nc2ccc(Cl)cc12 [Example 16] | > 30

Same assay, conditions: ARM-SAM-TIR lysate 5 μg/mL from NRK1-HEK293T cells; 2 h pre-incubation with compound, 5 μM NAD+, 2 hr room temperature; NAD+ and ADPR by RapidFire mass spectrometry; read-out: SARM1 IC50

SMILES | IC50 [µM]
N#Cc1cc(N2CCC(NCCO)CC2)nc2ccc(Cl)cc12 [Example 1] | 5 to 15
N#Cc1cc(N2CCC(N)CC2)nc2ccc(Cl)cc12 [Example 3] | 5 to 15
N#Cc1cc(N2CCCCC2)nc2ccc(Cl)cc12 [Example 4] | < 5
NC(=O)c1cc(N2CCC(NCCO)CC2)nc2ccc(Cl)cc12 [Example 6] | > 30
Cc1cc(N2CCC(NCCO)CC2)nc2ccc(Cl)cc12 [Example 9] | > 30
N#Cc1cc(N2CCCC2)nc2ccc(Cl)cc12 [Example 10] | < 5
Cc1ccc2nc(N3CCC(N)CC3)cc(C#N)c2c1 [Example 17] | 5 to 15
N#Cc1cc(N2CCC(N)CC2)nc2ccc(F)cc12 [Example 23] | > 30
N#Cc1cc(N2CCCCC2)nc2cc(Cl)ccc12 [Example 26] | < 5
Cc1cnc(CNc2cc(C#N)c3cc(Cl)ccc3n2)o1 [Example 28] | > 30
COCCNC(=O)CNc1cc(C#N)c2cc(Cl)ccc2n1 [Example 29] | 15 to 30
N#Cc1cc(NC2CCCCNC2=O)nc2ccc(Cl)cc12 (stereo not shown) [Example 31] | < 5
Cn1c(CNc2cc(C#N)c3cc(Cl)ccc3n2)nc2cccnc21 [Example 32] | > 30
N#Cc1cc(NC(CCO)C2CCOCC2)nc2ccc(Cl)cc12 (stereo not shown) [Example 33] | 5 to 15
N#Cc1cc(N2CC(CO)C2)nc2ccc(Cl)cc12 [Example 34] | 5 to 15
CC(=O)N1CCN(c2cc(C#N)c3cc(Cl)ccc3n2)CC1 [Example 35] | < 5
N#Cc1cc(NC2CCCN(C(N)=O)C2)nc2ccc(Cl)cc12 (stereo not shown) [Example 37] | < 5
N#Cc1cc(NCc2ccccn2)nc2ccc(Cl)cc12 [Example 42] | < 5
N#Cc1cc(NC2CCN(Cc3cccnc3)CC2)nc2ccc(Cl)cc12 [Example 44] | < 5

More lines, now with the values ahead:

IC50 [µM] | SMILES
> 30 | OCCNC1CCN(c2ccc3cc(Cl)ccc3n2)CC1 [Example 2]
< 5 | CN(C)c1cc(C#N)c2cc(Cl)ccc2n1 [Example 5]
> 30 | N#Cc1cc(N2CCC(NCCO)CC2)nc2ccccc12 [Example 8]
< 5 | N#Cc1cc(N2CC[C@@H](O)C2)nc2ccc(Cl)cc12 [Example 11]
< 5 | N#Cc1cc(N2CC[C@H](O)C2)nc2ccc(Cl)cc12 [Example 12]
< 5 | N#Cc1cc(NCC2CC2)nc2ccc(Cl)cc12 [Example 13]
< 5 | COc1cc(C#N)c2cc(Cl)ccc2n1 [Example 14]
> 30 | N#Cc1cc(Cl)nc2ccc(Cl)cc12 [Example 15]
5 to 15 | Cc1ccc2nc(N3CCCCC3)cc(C#N)c2c1 [Example 18]
< 5 | Cc1ccc2nc(N(C)C)cc(C#N)c2c1 [Example 19]
< 5 | N#Cc1cc(N2CCC(N)CC2)nc2ccc(Br)cc12 [Example 20]
< 5 | N#Cc1cc(N2CCCCC2)nc2ccc(Br)cc12 [Example 21]
< 5 | CN(C)c1cc(C#N)c2cc(Br)ccc2n1 [Example 22]
< 5 | N#Cc1cc(N2CCCCC2)nc2ccc(F)cc12 [Example 24]
5 to 15 | CN(C)c1cc(C#N)c2cc(F)ccc2n1 [Example 25]
< 5 | CN(C)c1cc(C#N)c2ccc(Cl)cc2n1 [Example 27]
5 to 15 | N#Cc1cc(NCC(O)c2ccco2)nc2ccc(Cl)cc12 (stereo not shown) [Example 30]
< 5 | CC1CC(CNc2cc(C#N)c3cc(Cl)ccc3n2)CCO1 (stereo not shown) [Example 36]
15 to 30 | CC(O)CNc1cc(C#N)c2cc(Cl)ccc2n1 (stereo not shown) [Example 38]
> 30 | CNC(=O)C(CO)Nc1cc(C#N)c2cc(Cl)ccc2n1 (stereo not shown) [Example 39]
< 5 | N#Cc1cc(N2CCCC(CCC(N)=O)C2)nc2ccc(Cl)cc12 (stereo not shown) [Example 40]
15 to 30 | CN(C)C(=O)NCCNc1cc(C#N)c2cc(Cl)ccc2n1 [Example 41]
15 to 30 | N#Cc1cc(N2CCN(c3ncc[nH]3)CC2)nc2ccc(Cl)cc12 [Example 43]
